For this assay, the system named is IUGR rats. Put plainly: Insulin content of pancreas of IUGR rats at postnatal day 57 after HMO supplementation (ELISA). It counts as in vivo, Sprague-Dawley rats. Particulars: gavage 3 g/kg body weight d7 to d21, then diet with 4.5 wt% HMO d22 to d57, sacrifice at day 57 after 6-hr fasting, compared with control IUGR rats (about 50 μg insulin per g pancreatic tissue), FIG. 1, *P<0.05. The source says: Three groups of time-mated pregnant Sprague-Dawley female rats were bought from Charles River laboratories. One group was submitted to food restriction of 60% during the last 10 days of gestation and their offspring were cross-fostered to normally fed rats. A second group of pregnant females was normally fed and their offspring cross-fostered among the same group of dams. Immediately after birth ([…]), the born rat pups-subjects of the experiment-were assigned to one of the following groups: • IUGR group (negative control; n=20): IUGR rats being fed a normal diet after birth; • IUGR rats+HMO (test groups): During the experiment, they were reared by their mothers for 21 days and supplemented with HMOs (2-FL, LNnT or the Mix of 2-FL and LNnT). At weaning, they were fed a diet supplemented with the same HMOs, see details below. […] All rat pups were fed from birth (d=1) up to 57 days (d=57) based on the following protocol: • d1 to d6: all groups of rats were nursed by dam (mothers' milk only); • d7 to d21: all rats were nursed by dam (mothers' milk only). […] Rats were sacrificed at day 57 (postnatal day 57=p57) after a 6-hr fasting period and pancreas was dissected and its insulin content was extracted using a solution acid-ethanol and quantified using an Ultra Sensitive Insulin ELISA kit ([…]., Downer Grove, Ill., USA) with and inter assay CV of 4.0%.
A general note: In an ELISA, binding on a coated surface is turned into a signal by an enzyme label.

On to `CC(=O)N[C@H]1[C@H](O[C@H]2[C@@H](O)[C@@H](CO)O[C@@H](O[C@H]3[C@H](O)[C@@H](O)C(O)O[C@@H]3CO)[C@@H]2O)O[C@H](CO)[C@@H](O[C@@H]2O[C@H](CO)[C@H](O)[C@H](O)[C@H]2O)[C@@H]1O` (mixture of isomers) [LNnT, lacto-N-neotetraose], for which the “insulin content of the rat's pancreas (amount of insulin per gram of pancreatic tissue)” value is reported as “about the same level of insulin”.

2′-fucosyllactose [2FL]: the “insulin content of the rat's pancreas (amount of insulin per gram of pancreatic tissue)” value is “significantly higher value of insulin”.
